Results taken from patent US20240269304A1, “BCL-XL INHIBITOR ANTIBODY-DRUG CONJUGATES AND METHODS OF USE THEREOF” (Novartis AG, priority 2020, published 2024).
pIC50: −log10 of the molar value. Where two headings read alike, the source gives them in different places.

Experiments:
[1] = system: NCI-H1650; test: CellTiter Glo 3D spheroid proliferation/survival, 5 days, NCI-H1650, 0.0005-500 nM (Example 10); format: cell-based, human; conditions: spheroids; for pIC50 / NCI-H1650 IC50 (nM): 0.0005-500 nM
Method: One target was assessed: EGFR.
The ability of the BCL-xL antibody drug conjugates to inhibit cell proliferation and survival was assessed using the Promega CellTiter-Glo® proliferation assay.
Cell lines were cultured in media that is optimal for their growth at 5% CO2, 37° C. in a tissue culture incubator. Prior to seeding for the proliferation assay, the cells were split at least 2 days before the assay to ensure optimal growth density. […] Cell viability and cell density were determined using a cell counter (Vi-Cell XR Cell Viability Analyzer, Beckman Coulter).
Cells were seeded at a density of 3,000 cells per well in 45 uL of standard growth media. Plates were spun in a centrifuge for 5 minutes and 1,000 RPM. Plates were incubated at 5% CO2, 37° C. for 72 hours in a tissue culture incubator. On the day of dosing, EGFR targeting BCL-xL ADCs were prepared at 1OX in standard growth media. The prepared drug treatments were then added to the cells resulting in final concentrations of 0.0005-500 nM and a final volume of 50 μL per well. Each drug concentration was tested in quadruplets. Plates were incubated at 5% CO2, 37° C. for 5 days in a tissue culture incubator.
Cell viability was assessed through the addition of 40 μL of CellTiter Glo 3D Cell Viability Assay substrate (Promega, cat #G9681), a reagent which lyses cells and measures total adenosine triphosphate (ATP) content. Wells were mixed thoroughly and plates were incubated at room temperature for 30 minutes to stabilize luminescent signals prior to reading using a luminescence reader (EnVision Multilabel Plate Reader, PerkinElmer).
To evaluate the effect of the drug treatments, luminescent counts from wells containing untreated cells (100% viability) were used to normalize treated samples. […] IC50 and Amax values were extrapolated from the resultant curves.

[2] = system: H1650 cells; test: CellTiterGlo (CTG) cell viability, 3D, 120 h, H1650 (Example 8); format: cell-based, human; conditions: Homo sapiens, NCI-H1650, H1650 3D
[3] = system: HCC1569 cells; test: CellTiterGlo (CTG) cell viability, 120 h, HCC1569, single agent or with 10 nM Paclitaxel; format: cell-based; conditions: Homo sapiens
Method: HCC1569 cells were cultivated in RPMI supplemented with 10% heat inactivated fetal bovine serum, penicillin (100 IU/ml), streptomycin (100 μg/ml) and L-glutamine (2 mM). Cell lines were cultured at 37° C. in a humidified atmosphere containing 5% 002. […] Effects of ADCs on cell viability were assessed after 5 days of incubation at 37° C./5% CO2 by quantification of cellular ATP levels using CellTiterGlo at 75 μL reagent/well. All the conditions were tested in triplicates. Luminescence was quantified on a multipurpose plate reader. IC50s were calculated using standard four-parametric curve fitting.

SMILES	pIC50 [1]	also measured
COCCOCCOCCOCCOCCOCCOCCOCCn1cc(COC(=O)N(Cc2cn(CCOCCOCCOCCOCCOCCOCCOCCOC)nn2)Cc2cc(NC(=O)[C@H](CCCNC(N)=O)NC(=O)[C@@H](NC(=O)CCOCCN3C(=O)CC(C)C3=O)C(C)C)ccc2C[N+](C)(C)CC#Cc2ccc(OCCCc3sc(N4CCCc5c4nnc(Nc4nc6ccccc6s4)c5C)nc3C(=O)O)c(F)c2)nn1 (mixture of isomers) [EGFR1-L1A-P1]	> 9.16	
COCCOCCOCCOCCOCCOCCOCCOCCn1cc(COC(=O)N(Cc2cn(CCOCCOCCOCCOCCOCCOCCOCCOC)nn2)Cc2cc(NC(=O)[C@H](CCCNC(N)=O)NC(=O)[C@@H](NC(=O)CCOCCN3C(=O)CC(C)C3=O)C(C)C)ccc2C[N+](C)(C)CC#Cc2ccc(OCCCc3sc(N(C)c4cc(C)c(Nc5nc6ccccc6s5)nn4)nc3C(=O)O)c(F)c2)nn1 (mixture of isomers) [EGFR1-L1A-P2]	> 8.21	
Cc1c(Nc2nc3ccccc3s2)nnc2c1CCCN2c1nc(C(=O)O)c(CCCOc2ccc(C#CC[N+](C)(C)Cc3ccc(NC(=O)[C@H](CCCNC(N)=O)NC(=O)[C@@H](NC(=O)CCOCCN4C(=O)CC(C)C4=O)C(C)C)cc3CN(C)C(=O)OCc3cn(CCOCCOCCOCCOCCOCCOCCOCCOCCC(=O)O)nn3)cc2F)s1 (mixture of isomers) [EGFR1-L3A-P1]	> 9.16	NCI-H1650 Amax (Span) [1]: >100
Cc1c(Nc2nc3ccccc3s2)nnc2c1CCCN2c1nc(C(=O)O)c(CCCOc2ccc(C#CCN(C)C(=O)COc3ccc(NC(=O)[C@H](CCCNC(N)=O)NC(=O)[C@@H](NC(=O)CCOCCN4C(=O)CC(C)C4=O)C(C)C)cc3CN(C)C(=O)OCc3cn(CCOCCOCCOCCOCCOCCOCCOCCOCCC(=O)O)nn3)cc2F)s1 (mixture of isomers) [EGFR1-L3C-P3]		NCI-H1650 Amax (Span) [1]: 100.6
Cc1cc(N(CCCC(O)C[N+](C)(C)C)c2nc(C(=O)O)c(CCCOc3ccc(C#CCN(C)C(=O)OCc4ccc(NC(=O)[C@H](CCCNC(N)=O)NC(=O)[C@@H](NC(=O)CCOCCN5C(=O)CC(C)C5=O)C(C)C)cc4CN(C)C(=O)OCc4cn(CCOCCOCCOCCOCCOCCOCCOCCOCCC(=O)O)nn4)cc3F)s2)nnc1Nc1nc2ccccc2s1 (mixture of isomers) [EGFR1-L3C-P5]	< 6.30	
COCCOCCOCCOCCOCCOCCOCCOCCn1cc(COC(=O)N(C)Cc2cc(NC(=O)[C@H](CCCNC(N)=O)NC(=O)[C@@H](NC(=O)CCOCCN3C(=O)CC(C)C3=O)C(C)C)ccc2C[N+](C)(C)CC#Cc2ccc(OCCCc3sc(N4CCCc5c4nnc(Nc4nc6ccccc6s4)c5C)nc3C(=O)O)c(F)c2)nn1 (mixture of isomers) [EGFR1-L4A-P1]	> 9.16	
Cc1c(Nc2nc3ccccc3s2)nnc2c1CCCN2c1nc(C(=O)O)c(CCCOc2ccc(C#CC[N+](C)(C)Cc3ccc(NC(=O)[C@H](CCCNC(N)=O)NC(=O)[C@@H](NC(=O)CCOCCN4C(=O)CC(C)C4=O)C(C)C)cc3COCc3cn(CCOCCOCCOCCOCCOCCOCCOCCOCCC(=O)O)nn3)cc2F)s1 (mixture of isomers) [EGFR1-L7A-P1]	> 9.16	
Cc1c(Nc2nc3ccccc3s2)nnc2c1CCCN2c1nc(C(=O)O)c(CCCOc2ccc(C#CCN(C)C(=O)OCc3ccc(NC(=O)[C@H](CCCNC(N)=O)NC(=O)[C@@H](NC(=O)CCOCCN4C(=O)CC(C)C4=O)C(C)C)cc3COCc3cn(CCOCCOCCOCCOCCOCCOCCOCCOCCC(=O)O)nn3)cc2F)s1 (mixture of isomers) [EGFR1-L7C-P3]	> 8.21	
Cc1cc(N(CCCN(C)C)c2nc(C(=O)O)c(CCCOc3ccc(C#CCN(C)C(=O)OCc4ccc(NC(=O)[C@H](CCCNC(N)=O)NC(=O)[C@@H](NC(=O)CCOCCN5C(=O)CC(C)C5=O)C(C)C)cc4COCc4cn(CCOCCOCCOCCOCCOCCOCCOCCOCCC(=O)O)nn4)cc3F)s2)nnc1Nc1nc2ccccc2s1 (mixture of isomers) [EGFR1-L7C-P6]	< 6.30	
Cc1cc(N(C)c2nc(C(=O)O)c(CCCOc3ccc(C#CCN(C)C(=O)OCc4ccc(NC(=O)[C@H](CCCNC(N)=O)NC(=O)[C@@H](NC(=O)CCOCCN5C(=O)CC(C)C5=O)C(C)C)cc4COCc4cn(CCOCCOCCOCCOCCOCCOCCOCCOCCC(=O)O)nn4)cc3F)s2)nnc1Nc1nc2ccccc2s1 (mixture of isomers) [EGFR1-L7C-P7]	> 7.26	
COCOCCOCCOCCOCCOCCOCCOCCn1cc(COCc2cc(NC(=O)[C@@H](CCCNC(N)=O)NC(=O)[C@H](NC(=O)CCOCCN3C(=O)CC(C)C3=O)C(C)C)ccc2C[N+](C)(C)CC#Cc2ccc(OCCCc3sc(N4CCCc5c4nnc(Nc4nc6ccccc6s4)c5C)nc3C(=O)O)c(F)c2)nn1 (mixture of isomers) [EGFR1-L8A-P1]	> 8.69	
Cc1cc(N(CCCC(O)C[N+](C)(C)CCS(=O)(=O)O)c2nc(C(=O)O)c(CCCOc3ccc(C#CCN(C)C(=O)OCc4ccc(NC(=O)[C@H](CCCNC(N)=O)NC(=O)[C@@H](NC(=O)CCOCCN5C(=O)CC(C)C5=O)C(C)C)cc4)cc3F)s2)nnc1Nc1nc2ccccc2s1 (mixture of isomers) [EGFR1-L9C-P4]	< 6.30	
Cc1cc(N(CCCC(O)C[N+](C)(C)C)c2nc(C(=O)O)c(CCCOc3ccc(C#CCN(C)C(=O)OCc4ccc(NC(=O)[C@H](CCCNC(N)=O)NC(=O)[C@@H](NC(=O)CCOCCN5C(=O)CC(C)C5=O)C(C)C)cc4)cc3F)s2)nnc1Nc1nc2ccccc2s1 (mixture of isomers) [EGFR1-L9C-P5]	< 6.30	
Cc1cc(N(C)c2nc(C(=O)O)c(CCCOc3ccc(C#CC[N+](C)(C)Cc4ccc(NC(=O)[C@H](CCCNC(N)=O)NC(=O)[C@@H](NC(=O)CCOCCN5C(=O)CC(C)C5=O)C(C)C)cc4CN(Cc4cn(CCOCCOCCOCCOCCOCCOCCOCCOCCC(=O)O)nn4)C(=O)OCc4cn(CCOCCOCCOCCOCCOCCOCCOCCOCCC(=O)O)nn4)cc3F)s2)nnc1Nc1nc2ccccc2s1 (mixture of isomers) [EGFR1-L10A-P2]	> 8.21	
Cc1c(Cc2nc3ccccc3s2)nnc2c1CCCN2c1nc(C(=O)O)c(CCCOc2ccc(C#CCN(C)C(=O)OCc3ccc(NC(=O)[C@H](CCCNC(N)=O)NC(=O)[C@@H](NC(=O)CCOCCN4C(=O)CC(C)C4=O)C(C)C)cc3CN(Cc3cn(CCOCCOCCOCCOCCOCCOCCOCCOCCC(=O)O)nn3)C(=O)OCc3cn(CCOCCOCCOCCOCCOCCOCCOCCOCCC(=O)O)nn3)cc2F)s1 (mixture of isomers) [EGFR1-L10C-P3]	> 7.73	
Cc1cc(N(CCCC(O)C[N+](C)(C)CCCS(=O)(=O)O)c2nc(C(=O)O)c(CCCOc3ccc(C#CCN(C)C(=O)OCc4ccccc4CN(C)C(=O)OCc4cn(CCOCCOCCOCCOCOCCOCCOCCOCCCC(=O)O)nn4)cc3F)s2)nnc1Nc1nc2ccccc2s1 (stereo not shown) [EGFR1-L3C-P4]	< 6.30	
Cc1c(Nc2nc3ccccc3s2)nnc2c1CCCN2c1ccc(-c2cnn(CC34CC5(C)CC(C)(C3)CC(OCCN(CC[C@H](O)CO)C(=O)OCc3ccc(NC(=O)[C@H](CCCNC(N)=O)NC(=O)[C@@H](NC(=O)CCOCCN6C(=O)C=CC6=O)C(C)C)cc3CN(C)C(=O)CCOCCOCCOCCOCCOCCOCCOCCOCCOCCOCCOCCOCCOCCOCCOCCOCCOCCOCCOCCOCCOCCOCCOCCOCCOCCC(=O)O)(C5)C4)c2C)c(C(=O)O)n1 [L11C-P19]		NCI-H1650 IC50 (nM) [1]: among the most potent
Cc1c(Nc2nc3ccccc3s2)nnc2c1CCCN2c1ccc(-c2cnn(CC34CC5(C)CC(C)(C3)CC(OCCN(CCCO)C(=O)OCc3ccc(NC(=O)[C@H](CCCNC(N)=O)NC(=O)[C@@H](NC(=O)CCOCCN6C(=O)C=CC6=O)C(C)C)cc3CN(C)C(=O)CCOCCOCCOCCOCCOCCOCCOCCOCCOCCOCCOCCOCCOCCOCCOCCOCCOCCOCCOCCOCCOCCOCCOCCOCCOCCC(=O)O)(C5)C4)c2C)c(C(=O)O)n1 [L11C-P25]		NCI-H1650 IC50 (nM) [1]: among the most potent
Cc1cc(N(C)c2nc(C(=O)O)c(CCCOc3ccc(C#CCN(C)C)cc3F)s2)nnc1Nc1nc2ccccc2s1 [P2, 2-[[6-(1,3-benzothiazol-2-ylamino)-5-methyl-pyridazin-3-yl]-methyl-amino]-5-[3-[4-[3-(dimethylamino)prop-1-ynyl]-2-fluoro-phenoxy]propyl]thiazole-4-carboxylic acid]		pIC50 ([2]; experiment n1, read-out: H1650 3D CTG IC50 n1): 8.97; pIC50 ([2]; experiment n2, read-out: H1650 3D CTG IC50 n2): 8.72; pIC50 ([2]; mean of n1 and n2, read-out: H1650 3D CTG IC50 Mean of n1 and n2): 8.83; IC50 ([3]; HCC1569, read-out: HCC1569 CTG 120 h IC50 nM + Paclitaxel 10 nM Mean N1 and N2, in the presence of 10 nM Paclitaxel, mean): 0.111 nM; IC50 ([3]; HCC1569, read-out: HCC1569 CTG 120 h IC50 nM + Paclitaxel 10 nM N1, in the presence of 10 nM Paclitaxel, N1): 0.126 nM; IC50 ([3]; HCC1569, read-out: HCC1569 CTG 120 h IC50 nM + Paclitaxel 10 nM N2, in the presence of 10 nM Paclitaxel, N2): 0.096 nM; IC50 ([3]; HCC1569, read-out: HCC1569 CTG 120 h IC50 nM Mean N1 and N2, single agent, mean): 12.4 nM; IC50 ([3]; HCC1569, read-out: HCC1569 CTG 120 h IC50 nM N1, single agent, N1): 13.1 nM; IC50 ([3]; HCC1569, read-out: HCC1569 CTG 120 h IC50 nM N2, single agent, N2): 11.7 nM
